Values quoted from earlier work in patent US10039772B2, “Methods and compositions for treating alcohol use disorders” (priority 2015, dated 2018).
Where two headings read alike, the source gives them in different places.

Test system: 11β-HSD1, 11β-HSD2
Conditions: cited from earlier work
[1] = 11β-HSD isozyme specificity per cited reference

| SMILES | Specificity [1] | Specificity |
| --- | --- | --- |
| Cc1c(Cl)cccc1S(=O)(=O)Nc1nc(CC(=O)N2CCN(C)CC2)cs1 [Number 5] | 11β- HSD1 > 2 | – |
| CCN(CC)C(=O)Cc1csc(NS(=O)(=O)c2cccc(Cl)c2C)n1 [Number 6] | 11β- HSD1 > 2 | – |
| Cc1c(Cl)cccc1S(=O)(=O)Nc1nc(CCN2CCOCC2=O)cs1 [Number 7, 3-chloro-2-methyl-N-{4-[2-(3-oxo-4-morpholinyl)ethyl]-1,3-thiazol-2-yl}benzenesulfonamide] | 11β- HSD1 > 2 | – |
| COc1cc(C(=O)N2CCC(n3c(=O)[nH]c4ccccc43)CC2)ccc1C [Number 8] | 11β- HSD1 > 2 | – |
| CCC1(CC)OC(N[C@@H](C)c2ccccc2C(F)(F)F)=NC1=O [Number 9] | 11β- HSD1 > 2 | – |
| C[C@H](NC1=NC(=O)[C@@](C)(C(C)(C)O)S1)c1ccc(F)cc1 [Number 10] | 11β- HSD1 > 2 | – |
| C[C@H](NC1=NC(=O)[C@@](C)(C(F)(F)F)S1)c1ccccc1F [Number 11] | 11β- HSD1 > 2 | – |
| CC(C)[C@]1(C)SC(N[C@H]2C[C@@H]3CC[C@H]2C3)=NC1=O [Number 13] | – | 11β- HSD1 > 2 |
| CC(C)[C@]1(C)SC(N[C@H]2C[C@H]3C[C@@H]2C[C@@H]3O)=NC1=O [Number 14] | – | 11β- HSD1 > 2 |
| CCN(C(=O)c1ccc([C@@](C)(O)C(F)(F)F)cc1)C1CCCCC1 [Number 16] | 11β- HSD1 > 2 | – |
| C[C@](O)(c1ccc(C(=O)N(C2CC2)C2CCN(CC3(C(N)=O)CC3)CC2)cc1)C(F)(F)F [Number 18] | – | 11β- HSD1 > 2 |
| C[C@](O)(c1ccc(C(=O)N(C2CC2)C2CCC(CCC(N)=O)(c3ccccc3)CC2)cc1)C(F)(F)F (some centres unmarked) [Number 19] | – | 11β- HSD1 > 2 |
| CC(C)N(c1ccc([C@](C)(O)C(F)(F)F)cc1)S(=O)(=O)c1cc(Cl)ccc1Cl [Number 20] | 11β- HSD1 > 2 | – |
| Cn1c(-c2ccccc2)nnc1C12CC3CC(CC(C3)C1)C2 [Number 23] | 11β- HSD1 > 2 | – |
| COc1c(-c2nnc(-c3ccccc3C(F)(F)F)n2C)ccc2ccc(Cl)cc12 [Number 24] | 11β- HSD1 > 2 | – |
| F[C@H]1C[C@](c2ccc(Cl)cc2)(c2nnc(C3CC3)n2C2CC2)C1 [Number 25] | 11β- HSD1 > 2 | – |
| Cn1c(-c2ccc(-c3cccc(S(C)(=O)=O)c3)cc2Cl)nnc1C1(c2ccc(Cl)cc2)CCC1 [Number 26] | 11β- HSD1 > 2 | – |
| Cn1c(-c2ccc(-c3cnccn3)cc2Cl)nnc1[C@]1(c2ccc(Cl)cc2)C[C@@H](F)C1 [Number 27] | 11β- HSD1 > 2 | – |
| CCCCCC12CCC(c3nnc(-c4ccccc4C(F)(F)F)n3C)(CC1)CC2 [Number 28] | 11β- HSD1 > 2 | – |
| CCS(=O)(=O)CCCC12CCC(c3nnc(-c4ccccc4C(F)(F)F)n3C)(CC1)CC2 [Number 29] | 11β- HSD1 > 2 | – |
| CC(C)(C)c1ccc(S(=O)(=O)N2C[C@H]3C[C@@H]2CN3C2CCCC2)cc1 [Number 30] | 11β- HSD1 > 2 | – |
| Cn1c(-c2ccccc2C(F)(F)F)nnc1C12CCC(c3nc(-c4ccc(C(O)C(F)(F)F)cc4)no3)(CC1)CC2 (centres unmarked) [Number 31] | 11β- HSD1 > 2 | – |
| CO[C@@H]1C[C@H]2CC[C@@H](C1)N2S(=O)(=O)c1ccc(C(C)(C)C)cc1 [Number 32] | – | 11β- HSD1 > 2 |
| Cn1c(-c2ccccc2C(F)(F)F)nnc1C12CCC(c3nc(-c4ccc(F)cc4)no3)(CC1)CC2 [Number 33] | 11β- HSD1 > 2 | – |
| CCN(CC)C(=O)Cc1cccc(NS(=O)(=O)c2cccc(Cl)c2C)n1 [Number 34] | 11β- HSD1 > 2 | – |
| Cc1cc(N)nc(NS(=O)(=O)c2ccc(-c3ccc(C#N)cc3)cc2)c1 [Number 36] | 11β- HSD1 > 2 | – |
| N#Cc1ccc(-c2ccc(S(=O)(=O)Nc3cccc(CO)n3)cc2)cc1 [Number 39] | 11β- HSD1 > 2 | – |

| SMILES | Specificity [1] | Specificity |
| --- | --- | --- |
| O=C(CS(=O)(=O)c1ccccc1)c1ccc(C(F)(F)F)cc1 [Number 40] | 11β- HSD1 > 2 | – |
| O=S(=O)(c1ccc(Cl)c(Cl)c1)N1CCN(c2ncccc2C(F)(F)F)CC1 [Number 41] | 11β- HSD1 > 2 | – |
| C[C@@H]1CN(c2ncc(F)cc2C(F)(F)F)CCN1S(=O)(=O)c1cccc(-n2cncn2)c1 [Number 42] | 11β- HSD1 > 2 | – |
| C[C@@H]1CN(c2ccc(F)cc2C(F)(F)F)CCN1S(=O)(=O)c1cccc([C@@](C)(O)C(F)(F)F)c1 [Number 43] | 11β- HSD1 > 2 | – |
| C[C@@H]1CN(c2ccc(F)cc2C(F)(F)F)CCN1S(=O)(=O)c1ccc(C(N)=O)cc1Cl [Number 44] | – | 11β- HSD1 > 2 |
| C[C@@H]1CN(c2ccc(F)cc2C(F)(F)F)CCN1S(=O)(=O)c1ccc([C@@](O)(C(N)=O)C(F)(F)F)s1 [Number 45] | 11β- HSD1 > 2 | – |
| CCCSc1ncccc1C(=O)NC1CCCCC1 [Number 46] | 11β- HSD1 > 2 | – |
| CCCSc1nc(N2CCC[C@@H](CC(=O)O)C2)ccc1C(=O)NC1CCCCC1 [Number 47] | – | 11β- HSD1 > 2 |
| O=C(N[C@H]1C2CC3CC1C[C@@](O)(C3)C2)c1cnc(N2CCOCC2)nc1C1CC1 [Number 48] | 11β- HSD1 > 2 | – |
| O=C(N[C@H]1C2CC3CC1C[C@@](O)(C3)C2)c1cnc(N[C@H]2CCOC2)nc1C1CCCC1 [Number 49] | 11β- HSD1 > 2 | – |
| CSc1nc(N2C[C@@H]3[C@H](C2)[C@H]3C(=O)O)ccc1C(=O)NC1C2CC3CC(C2)CC1C3 (some centres unmarked) [Number 50] | 11β- HSD1 > 2 | – |
| COc1ccc(N2C(=O)C(C)(C)C2c2ccccc2OC)cc1 (centres unmarked) [Number 51] | 11β- HSD1 > 2 | – |
| CC(C)(C)c1c(C(=O)NC2C3CC4CC(C3)CC2C4)cnn1-c1ccc(C(=O)O)cc1 (centres unmarked) [Number 52] | 11β- HSD1 > 2 | – |
| CC1(C)C(=O)N(c2cccc(S(C)(=O)=O)c2)C1c1cccc2nccnc12 (centres unmarked) [Number 53] | 11β- HSD1 > 2 | – |
| Nc1c(Cl)cc(C(=O)N(C2CCCC2)C2CC2)cc1Cl [Number 54] | 11β- HSD1 > 2 | – |
| C[C@@H]1CC(n2c(=O)[nH]c3ccccc32)C[C@@H](C)N1C(=O)c1cc(Cl)c(N)c(Cl)c1 (some centres unmarked) [Number 55] | 11β- HSD1 > 2 | – |
| O=C1C(Cc2ccccc2)CCN1C1CCCCC1 (centres unmarked) [Number 56] | 11β- HSD1 > 2 | – |
| N#Cc1cccnc1N1CCN(CC(=O)NC2C3CC4CC(C3)CC2C4)CC1 (centres unmarked) [Number 58] | 11β- HSD1 > 2 | – |
| O=C(CN1CCN(c2ccc(C(F)(F)F)cn2)CC1)NC1C2CC3CC1CC(O)(C3)C2 (centres unmarked) [Number 59] | 11β- HSD1 > 2 | – |
| CC(C)(C(=O)NC1C2CC3CC1CC(C(N)=O)(C3)C2)N1CCN(c2ccc(C(F)(F)F)cn2)CC1 (centres unmarked) [Number 60] | 11β- HSD1 > 2 | – |
| CC(C)(Cc1ccc(Cl)cc1)C(=O)NC12CCC(C(N)=O)(CC1)CC2 [Number 61] | 11β- HSD1 > 2 | – |
| CC(C)(Oc1ccc(-n2cccn2)cn1)C(=O)N[C@H]1C2CC3CC1C[C@@](C(N)=O)(C3)C2 [Number 63] | 11β- HSD1 > 2 | – |
| CC(C(=O)NC1C2CC3CC1CC(O)(C3)C2)N1CCN(c2ccc(C(F)(F)F)cn2)CC1 (centres unmarked) [Number 66] | – | 11β- HSD1 > 2 |
| CC1CCN(C(=O)c2ccc(CSc3ccc(Cl)cc3)cc2)CC1 [Number 67] | – | 11β- HSD1 > 2 |
| CC1CCN(C(=O)c2cccc(CSc3c(Cl)cccc3Cl)n2)CC1 [Number 68] | 11β- HSD1 > 2 | – |
| N#Cc1c(O)nc(SCc2ccccc2Cl)nc1-c1ccccc1 [Number 69] | 11β- HSD1 > 2 | – |
